Measured values from US6031093A, “Solid salts of clavulanic acid” (SmithKline Beecham p.l.c., priority 1995, dated 2000).
“Also recorded” adds a separate entry of the source. Counter-ions that a name gives are not always drawn. Like-named read-outs stand apart in the source and are kept apart here.

Experiments:
[1] = tested on: Klebsiella aerogenes E 70; assay: Antibacterial synergism, microtitre method (MIC); assay type: cell-based
Staphylococcus = assay: Antibacterial synergism, microtitre method (MIC); assay type: cell-based
Klebsiella aerogenes A = assay: Antibacterial synergism, microtitre method (MIC); assay type: cell-based
Klebsiella aerogenes 62 = assay: Antibacterial synergism, microtitre method (MIC); assay type: cell-based
Klebsiella acrogenes A = assay: Growth inhibition and synergism; assay type: cell-based, Klebsiella aerogenes; settings: 5 μg/ml. of clavulanic acid also present
[2] = tested on: Staphylococcus aureus (Russell); assay: Synergism of clavulanic acid methyl ester (M.I.C.); assay type: cell-based; settings: in the presence of 1.0 μg/ml. clavulanic acid methyl ester
[3] = Hydrolysis of ester to clavulanic acid in pH 7 buffer; assay type: physicochemical; settings: buffered to pH 7 (0.05M phosphate, 37° C., 1 mg/ml, 2 hours in Example 29)
Procedure: The reaction was followed by paper chromatography (bioautographic system). Using the butanol/ethanol/water system to follow the reaction over a period of 2 hours the zone of the methyl ester at Rf 0.79 decreased in size as the zone of clavulanic acid at Rf 0.12 increased.

Enterohacter cloacae = assay: Antibacterial synergism, microtitre method (MIC); assay type: cell-based; settings: read-out: Minimum Inhibitory Concentration, agent alone
[4] = tested on: Staphylococcus aureus (Russell); assay: Antibacterial synergism, microtitre method (MIC); assay type: cell-based; settings: Table 6
Enterobacter cleacea = assay: Antibacterial spectrum, microtitre method (MIC); assay type: cell-based; settings: read-out: Minimum Inhibitory Concentration
[5] = target: T1, β-lactamase produced by Escherichia coli JT4 (Escherichia coli, UniProt P62593); assay: β-lactamase inhibition assay (Description 1); assay type: biochemical
T1 construct: the cell debris was removed by centrifugation and aliquots of the supernatant stored deep frozen; endogenous in cells; host or cells: Escherichia coli JT4 (R factor), ultrasonic extract
T1 sequence (P62593 24-286 limits assumed): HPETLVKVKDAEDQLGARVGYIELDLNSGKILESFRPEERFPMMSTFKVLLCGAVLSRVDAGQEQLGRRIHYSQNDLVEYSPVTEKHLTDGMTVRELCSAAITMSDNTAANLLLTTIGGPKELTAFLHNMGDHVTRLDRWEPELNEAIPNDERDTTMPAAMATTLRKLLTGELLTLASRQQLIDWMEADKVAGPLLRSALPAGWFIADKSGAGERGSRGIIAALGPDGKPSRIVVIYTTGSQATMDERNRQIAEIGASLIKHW
Procedure: Solutions containing clavulanic acid (culture filtrate, samples from isolation procedure and the like) are incubated for 15 minutes with a β-lactamase preparation in 0.05M phosphate buffer at pH 7 and 37° C. During this time, enzyme inhibition or inactivation occurs. Substrate (benzylpenicillin) is then added and incubation continued for 30 minutes at 37° C. The amount of enzymic degradation of the substrate to penicilloic acid is determined by the hydroxylamine assay for penicillin. The amount of β-lactamase used is such as to give 75% hydrolysis of the benzylpenicillin in 30 minutes at 37° C.
The extent of hydrolysis is a reflection of the amount of enzyme remaining uninhibited.
The β-lactamase produced by Escherichia coli JT4 is used as an enzyme.
The culture maintained on nutrient agar slopes, is inoculated into 400 ml. of sterile Tryptone medium contained in a 2 liter conical flask. This medium has the following composition Tryptone (Oxoid) 32 g/l, yeast extract (Oxoid) 20 g/l, Nacl 5 g/l and Cacl2 6H2 O 2.2 g/l. […]
Suitable dilutions of the inhibitor preparation and β-lactamase solution are mixed and incubated at 37° C. for 15 minutes (Test). […] The absorption of the final solutions is measured in an E.E.L. Colorimeter or a Spectrophotometer at 490 nm against the reagent blank.
The percentage inhibition of the β-lactamase is calculated as follows- - […]

Stability in human blood = assay type: in vitro ADME
[6] = +5 μg/ml benzyl ester of clavulanic acid
[7] = +5 μg/ml methyl ester of clavulanic acid

For `CC1(C)S[C@@H]2[C@H](NC(=O)[C@H](N)c3ccccc3)C(=O)N2[C@H]1C(=O)O` [ampicillin], the “MIC of Ampicillin + 5 μg/ml of Benzyl Ester of clavulanic acid” value (shortened to “MIC … of Benzyl Ester of clavulanic acid”) [1, 6] was 3.9 µg/mL, the “MIC of Ampicillin + 5 μg/ml of Methyl Ester of clavulanic acid” value (from here on “MIC … of Methyl Ester of clavulanic acid”) [1, 7] was 3.9 µg/mL and the MIC (Staphylococcus; alone, inoculum 0.5×10^-2, read-out: Minimum Inhibitory Concentration, agent alone) was 250 µg/mL. For the same compound, the “MIC … of Benzyl Ester of clavulanic acid” value (Klebsiella aerogenes A; [6]) was 1.9 µg/mL, the “MIC … of Methyl Ester of clavulanic acid” value (Klebsiella aerogenes A; [7]) was 1.9 µg/mL and the “MIC … of Benzyl Ester of clavulanic acid” value (Klebsiella aerogenes 62; [6]) was 3.9 µg/mL. The “MIC … of Methyl Ester of clavulanic acid” value (Klebsiella aerogenes 62; [7]) was 3.9 µg/mL.
For `CC1(C)S[C@@H]2[C@H](NC(=O)Cc3ccccc3)C(=O)N2[C@H]1C(=O)O` [benzylpenicillin], the “concentration of penicillin inhibiting growth” value (Klebsiella acrogenes A) was “less than 12.5 μg/ml”.
With `CC1(C)S[C@@H]2[C@H](NC(=O)C(C(=O)O)c3ccccc3)C(=O)N2[C@H]1C(=O)O` (some centres unmarked) [carbenicillin] the “concentration of penicillin inhibiting growth” value (Klebsiella acrogenes A) was “less than 12.5 μg/ml”.
In the case of `O=C(Cc1cccs1)N[C@@H]1C(=O)N2C(C(=O)[O-])=C(C[n+]3ccccc3)CS[C@H]12` [cephaloridine], the “M.I.C. of antibiotic in presence of synergist” value [2] is reported as under 0.03 µg/mL.
With `COC(=O)[C@H]1/C(=C/CO)O[C@@H]2CC(=O)N21` [clavulanic acid methyl ester] the “hydrolysis of ester to clavulanic acid” value [3] was “slowly hydrolyse to clavulanic acid; also recorded: Slow conversion of the ester to clavulanic acid”.
In the case of `O=C(O)[C@H]1/C(=C/CO)O[C@@H]2CC(=O)N21` [clavulanic acid sodium salt, 3-(β-hydroxyethylidine)-7-oxo-4-oxa-1-azabicyclo [3,2,0]heptane-2-carboxylic acid sodium salt], the MIC (Enterohacter cloacae) is reported as 62 µg/mL, the MIC (Staphylococcus; read-out: Minimum Inhibitory Concentration, agent alone) is reported as 62 µg/mL and the “Minimum Inhibitory Concentration, agent alone” value [4] is reported as 15 µg/mL. It also gave an MIC (Enterobacter cleacea) of 62 µg/mL.
For `O=C(O)[C@H]1/C(=C/CO)O[C@@H]2CC(=O)N21` [clavulanic acid, Z-(2R,5R)-3-(β-hydroxyethylidene)-7-oxo-4-oxa-1-azabicyclo[3,2,0]heptane-2-carboxylic acid], the “mode of β-lactamase inhibition” value [5] was “progressively and irreversibly inhibits” and the “stability in human blood” value (Stability in human blood) was “high stability”.
